Assay [1] has as its system Gram-negative bacteria. Conditions: data not shown; ref our previous study; cited from earlier work. The source says:
A. veronii is a widely distributed novel pathogen that can infect humans and animals. Due to overuse of broad-spectrum antibiotics in fish hatcheries, agriculture, and clinical settings, there has been an increase in antibiotic resistance of Aeromonas species, illustrating an emerging potential health concern.

Assay [2] relates to A. veronii ACCC61732. The experiment in a line: Resistance development, 30 serial passages. Conditions: A. veronii ACCC61732, 30 passages (30 days). Format: cell-based. The method, then: The development of bacterial resistance of peptides was performed by the MIC assays. […] GEN, CIP, and PMB were used as controls. […] The MIC values were measured as described above. The serial passaging was repeated for 30 days.

Assay [3] relates to A. veronii ACCC61732. As to the kind of experiment: microbe, parasite or virus in culture. The class given is cell-based. To be noted: for MIC: Aeromonas veronii; for MICa, MIC of the antibiotic used alone: checkerboard. The source says:
The checkerboard microtiter assay was used to determine the combinations of peptides with different antibiotics (including quinolone, rifamycin, peptide antibiotics, aminoglycoside, tetracycline, and chloramphenicol). […] The fractional inhibitory concentration (FIC) was used to calculate the combination effects using the following formula: FIC index (FICI) = MIC(peptide in combination)/MIC(peptide alone) + MIC(antibiotic in combination)/MIC(antibiotic alone). FICI ≤ 0.5 means synergistic, 0.5 < FICI ≤ 1 means additive action, 1 < FICI ≤ 4 means indifference, and FICI > 4 means antagonism.

In assay [4] the test system is A. veronii ACCC61732. The experiment in a line: Outer membrane permeabilization, NPN assay. Format: cell-based. To be noted: NPN fluorescence, 1×–4× MIC. The procedure:
The outer membrane permeabilization abilities of peptides were determined using the fluorescent NPN assay. Mid-log phase A. veronii ACCC61732 was collected by centrifugation, washed twice, and then suspended in N-2-hydroxyethylpiperazine-n-2-ethane sulfonic acid (HEPES) buffer (pH 7.4) to an OD600nm = 0.4. […] Fluorescence intensity was recorded until no further increase with a microplate reader (excitation/emission, 328/438 nm).

The mark [5] stands for this setting: ACCC61732, checkerboard, Tables S1–S5, identical values of one substance within a block given once, read-out: MICa, MIC of the antibiotic used alone.
Where [6] appears, read: Tables S1–S5, identical values of one substance within a block given once.

These results are taken from publication PMC7767178 (International Journal of Molecular Sciences, 2020).

Where a name gives a salt, the structure may show the parent alone. Read-outs that look alike come from different tables or passages of the source.

For the molecule “VCVYRGFAWNCHRRANNGVRV [N2143, analog of N6 without the β-sheet structural feature]”, the “antimicrobial activity against Gram-negative bacteria” value (from here on “antimicrobial activity”) in assay [1] is “lost the antimicrobial activity”.

As for `CNC(C)C1CCC(N)C(OC2C(N)CC(N)C(OC3OCC(C)(O)C(NC)C3O)C2O)O1` (stereo not shown) [GEN, gentamicin, reference compound], the “increase of MIC after 30 serial passages” value in assay [2] came out at 31 fold.

As for `CCN1CCN(c2cc3c(cc2F)c(=O)c(C(=O)O)cn3C2CC2)CC1` [ENRO, enrofloxacin], the MIC in assay [3] (setting [5]) was 0.25 mg/L.

On to “VCVYRCHRRANGFAWNNGVRV [N2413, analog of N6 without the β-sheet structural feature]”, for which the “antimicrobial activity” value in assay [1] is recorded as “lost the antimicrobial activity”.

Consider `[H]/N=C(/N)N[C@H]1[C@H](O)[C@@H](O)[C@H](O[C@@H]2O[C@@H](C)[C@](O)(C=O)[C@H]2O[C@@H]2O[C@@H](CO)[C@H](O)[C@@H](O)[C@@H]2NC)[C@@H](N/C(N)=N\[H])[C@@H]1O` [STRE, streptomycin sulfate], for which, in assay [3] (setting [5]), the MIC came to 64 mg/L.

On to `NC[C@H]1O[C@H](O[C@H]2[C@H](O)[C@@H](O[C@H]3O[C@H](CO)[C@@H](O)[C@H](N)[C@H]3O)[C@H](N)C[C@@H]2N)[C@H](O)[C@@H](O)[C@@H]1O` [KANA, kanamycin sulfate], for which the MIC in assay [3] (setting [5]) is 8 mg/L.

On to `CCn1cc(C(=O)O)c(=O)c2cc(F)c(N3CCNCC3)cc21` [NOR, norfloxacin], for which the MIC in assay [3] (setting [5]) was found to be 0.5 mg/L.

In the case of doxycycline hyclate, the “MICa, MIC of the antibiotic used alone” value in assay [3] (setting [6]) was 1 mg/L.

With “GFWNVVYRNGVAACCRVHRRN [SN3, analog of N6 without the β-sheet structural feature]”, in assay [1], the “antimicrobial activity” value is given as “lost the antimicrobial activity”.

`CC1COc2c(N3CCN(C)CC3)c(F)cc3c(=O)c(C(=O)O)cn1c23` (stereo not shown) [OFX, ofloxacin]: the MIC in assay [3] (setting [5]) came to 0.25 mg/L.

As to polymyxin B [PMB, reference compound], in assay [3] (setting [6]), the “MICa, MIC of the antibiotic used alone” value was 8 mg/L. The “increase of MIC after 30 serial passages” value in assay [2] is reported as “one-fold”. Moreover, the “ability to penetrate the outer membrane” value in assay [4] is on record as “higher ability to penetrate the outer membrane than N6NH2”.

Take “AACCGFWNVVYRNGVRVHRRN [SN1, analog of N6 without the β-sheet structural feature]”: in assay [1], the “antimicrobial activity” value was “lost the antimicrobial activity”.

Turning to `CN[C@H](CC(C)C)C(=O)N[C@H]1C(=O)N[C@@H](CC(N)=O)C(=O)N[C@H]2C(=O)N[C@H]3C(=O)N[C@H](C(=O)N[C@H](C(=O)O)c4cc(O)cc(O)c4-c4cc3ccc4O)[C@H](O)c3ccc(c(Cl)c3)Oc3cc2cc(c3O[C@@H]2O[C@H](CO)[C@@H](O)[C@H](O)[C@H]2O[C@H]2C[C@](C)(N)[C@H](O)[C@H](C)O2)Oc2ccc(cc2Cl)[C@H]1O` [VAN, vancomycin], the MIC in assay [3] (ACCC61732, read-out: MICa, MIC of the antibiotic used alone) amounted to 16 mg/L.

Turning to `O=C(N[C@H](CO)[C@H](O)c1ccc([N+](=O)[O-])cc1)C(Cl)Cl` [CHLO, chloramphenicol], the MIC in assay [3] (setting [5]) came out at 0.25 mg/L.
